From patent publication US5017604A, “Novel fenamic acid methyl hydroxamate derivatives having cyclooxygenase and 5-lipoxygenase inhibition” (Warner-Lambert Company, priority 1990, dated 1991)
Blank lines part the entries; values can stand above or below the compound they belong to.

Experiments:
Assay type in all cases: cell-based
5-lipoxygenase [1] = biological target: T1, 5-lipoxygenase (Rattus norvegicus, UniProt P12527); assay: ARBL whole cell 5-lipoxygenase assay (RBL-1 cells, LTB4 formation by RIA); settings: RBL-1 whole cells; for inhibition at 10 µM / inhibition at 16 µM: read-out: ARBL % inhibition at the given micromolar concentration (LTB4 formation); for IC50: A23187 5 μM, read-out: ARBL IC50 (50% inhibition of LTB4 formation)
T1 construct: host or cells: RBL-1 (rat basophilic leukemia) cells
T1 sequence (P12527 1-673): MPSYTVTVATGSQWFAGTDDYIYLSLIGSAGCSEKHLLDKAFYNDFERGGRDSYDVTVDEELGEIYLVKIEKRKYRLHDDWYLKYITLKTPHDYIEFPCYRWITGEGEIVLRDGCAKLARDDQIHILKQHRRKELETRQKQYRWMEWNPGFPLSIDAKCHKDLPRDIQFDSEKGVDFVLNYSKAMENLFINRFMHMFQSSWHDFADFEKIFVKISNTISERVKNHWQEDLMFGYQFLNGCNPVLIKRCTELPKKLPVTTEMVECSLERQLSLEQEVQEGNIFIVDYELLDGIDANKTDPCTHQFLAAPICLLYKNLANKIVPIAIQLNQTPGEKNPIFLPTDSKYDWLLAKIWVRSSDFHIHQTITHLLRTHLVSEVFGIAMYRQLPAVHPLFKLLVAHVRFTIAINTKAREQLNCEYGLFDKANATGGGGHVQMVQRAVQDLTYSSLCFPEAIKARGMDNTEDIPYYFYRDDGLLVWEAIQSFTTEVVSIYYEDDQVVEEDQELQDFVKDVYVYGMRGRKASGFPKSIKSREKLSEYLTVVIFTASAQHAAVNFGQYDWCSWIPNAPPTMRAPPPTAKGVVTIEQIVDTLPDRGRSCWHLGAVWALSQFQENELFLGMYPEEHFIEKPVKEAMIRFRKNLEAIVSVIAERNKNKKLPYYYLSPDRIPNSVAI
Protocol: (§1) ARBL/ARBC Whole Cell 5-Lipoxygenase and Cyclooxyqenase Assays
(§2) The rat basophilic leukemia cell line (RBL-1) was obtained from the American Type Culture Collection (Rockville, Md.).
(§3) Radioimmunoassay (RIA) kits for LTB4 and PGF2α determination were obtained from Amersham (Arlington Heights, Ill.) and Seragen (Boston, Mass.), respectively.
(§4) RBL-1 cells are grown in suspension culture in Eagle's minimum essential medium supplemented with 12% fetal bovine serum at 37° C. in an incubator supplied with air-5% carbon dioxide. Cells are harvested by centrifugation. They are washed with cold phosphate buffered saline pH 7.4 (PBS; NaCl, 7.1 g; Na2 HPO4, 1.15 g; KH2 PO4, 0.2 g; and KCl, 0.2 g/L). Cells are finally suspended in PBS containing 1.0 mM calcium at a density of 2×10^6 cells/mL. Cells are incubated with and without test agent (in DMSO) (1% DMSO is without effect on arachidonic acid metabolism) for 10 minutes at room temperature. Calcium inonophore A23187 (5 μM) is added and cells are incubated for 7 minutes at 37° C. The reaction is stopped by chilling the tubes on ice for 10 minutes. Cells are separated by centrifugation and the supernatant is stored at -20° . Aliquots (100 μL) are analyzed for LTB4 and PGF2α using radioimmunoassay kits as provided by the supplier.
(§5) Table 1 contains biochemical data obtained from this whole cell assay as IC50 s which are calculated as the concentration of test compound causing 50% inhibition of LTB4 or PGF2α formation or in percent inhibition at the given micromolar concentration. N at 10 or 16 is not active at 10 μmolar or 16 μmolar.

cyclooxygenase [2] = biological target: T2, cyclooxygenase (Rattus norvegicus, UniProt Q63921); assay: ARBC whole cell cyclooxygenase assay (RBL-1 cells, PGF2α formation by RIA); design: key: N @ 10 μmolar is not active at 10 μmolar; settings: RBL-1 whole cells; @ 10 μM
T2 construct: host or cells: RBL-1 (rat basophilic leukemia) cells
T2 sequence (Q63921 27-602): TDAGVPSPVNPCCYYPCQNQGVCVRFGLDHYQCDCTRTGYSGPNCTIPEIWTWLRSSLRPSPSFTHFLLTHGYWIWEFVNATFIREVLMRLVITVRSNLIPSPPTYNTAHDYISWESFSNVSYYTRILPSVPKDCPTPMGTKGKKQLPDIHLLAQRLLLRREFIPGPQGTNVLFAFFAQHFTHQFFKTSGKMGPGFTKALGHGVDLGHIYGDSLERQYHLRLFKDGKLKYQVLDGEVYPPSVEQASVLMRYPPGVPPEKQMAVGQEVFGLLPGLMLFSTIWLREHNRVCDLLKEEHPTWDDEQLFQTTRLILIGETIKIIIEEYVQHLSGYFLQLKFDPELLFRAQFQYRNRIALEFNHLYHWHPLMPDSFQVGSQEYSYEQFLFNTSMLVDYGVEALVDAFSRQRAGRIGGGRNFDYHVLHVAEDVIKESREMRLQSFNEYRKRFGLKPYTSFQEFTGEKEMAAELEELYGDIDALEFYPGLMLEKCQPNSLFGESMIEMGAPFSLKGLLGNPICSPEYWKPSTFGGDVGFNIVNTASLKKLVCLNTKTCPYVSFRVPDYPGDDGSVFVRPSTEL
Protocol: as §1, §2, §3
as §4, with “supplier. […]” for “supplier.”

5-lipoxygenase [3] = biological target: T1, 5-lipoxygenase; assay: ARBL whole cell 5-lipoxygenase assay (RBL-1 cells, LTB4 formation by RIA); design: key: N @ 16 μmolar is not active at 16 μmolar; settings: RBL-1 whole cells; @ 16 μM
Protocol: as §1, §2, §3, §4, §5

cyclooxygenase [4] = biological target: T2, cyclooxygenase; assay: ARBC whole cell cyclooxygenase assay (RBL-1 cells, PGF2α formation by RIA); settings: RBL-1 whole cells; for IC50: A23187 5 μM, read-out: ARBC IC50 (50% inhibition of PGF2α formation)
Protocol: as §1, §2, §3, §4, §5

cyclooxygenase [5] = biological target: T2, cyclooxygenase; assay: as above; design: key: N @ 16 μmolar is not active at 16 μmolar; settings: RBL-1 whole cells; @ 16 μM
Protocol: as §1, §2, §3, §4, §5

5-lipoxygenase [6] = biological target: T1, 5-lipoxygenase; assay: ARBL whole cell 5-lipoxygenase assay (RBL-1 cells, LTB4 formation by RIA); design: key: N @ 10 μmolar is not active at 10 μmolar; settings: RBL-1 whole cells; @ 10 μM
Protocol: as §1, §2, §3, §4, §5

[7] = read-out: ARBC % inhibition at the given micromolar concentration (PGF2α formation)

SMILES: CC(=O)N(O)C(C)c1ccc(C)c(Nc2ccccc2C(=O)O)c1C (stereo not drawn) [Example 52]
ARBC activity (N = not active) (cyclooxygenase [5]): N
ARBL activity (N = not active) (5-lipoxygenase [3]): N

SMILES: CC(=O)N(O)C(C)c1cccc(Nc2ccccc2C(=O)O)c1C (stereo not drawn) [Example 51]
ARBL activity (N = not active) (5-lipoxygenase [3]): N
inhibition at 10 µM (cyclooxygenase [4]; [7]): 70%

SMILES: CC(=O)N(O)C(C)c1ccc(Cl)c(Nc2ccccc2C(=O)O)c1Cl (stereo not drawn) [Example 57]
inhibition at 10 µM (cyclooxygenase [4]; [7]): 53%
ARBL activity (N = not active) (5-lipoxygenase [6]): N

SMILES: CCOC(=O)N(O)Cc1cccc(Nc2ccccc2C(=O)O)c1C [Example 49]
ARBL activity (N = not active) (5-lipoxygenase [3]): N
inhibition at 0.25 µM (cyclooxygenase [4]; @ 0.25 μM, read-out: ARBC % inhibition at the given micromolar concentration (PGF2α formation)): 67%

SMILES: CCOC(=O)N(O)Cc1cccc(Nc2ccccc2C(=O)OC)c1Cl [Example 40, 2-[[2-chloro-3-[[(ethoxycarbonyl)hydroxyamino]methyl]phenyl]amino]benzoic acid, methyl ester]
IC50 (5-lipoxygenase [1]): 210 nM
IC50 (cyclooxygenase [4]): 670 nM

SMILES: CCOC(=O)N(O)Cc1ccc(Cl)c(Nc2ccccc2C(=O)O)c1Cl [Example 56]
inhibition at 16 µM (5-lipoxygenase [1]): 47%
inhibition at 16 µM (cyclooxygenase [4]; [7]): 89%

SMILES: CNC(=O)N(O)Cc1cccc(Nc2ccccc2C(=O)OC)c1Cl [Example 46, 2-[[2-Chloro-3-[[hydroxy[(methylamino)carbonyl]amino]methyl]phenyl]amino]benzoic acid methyl ester]
IC50 (5-lipoxygenase [1]): 360 nM
IC50 (cyclooxygenase [4]): 4700 nM

SMILES: CNC(=O)N(O)Cc1cccc(Nc2ccccc2C(=O)OC)c1C [Example 44, 2-[[3-[[Hydroxy[(methylamino)carbonyl]amino]methyl]-2-methylphenyl]amino]benzoic acid methyl ester]
inhibition at 16 µM (5-lipoxygenase [1]): > 95%
inhibition at 16 µM (cyclooxygenase [4]; [7]): 43%

SMILES: COC(=O)c1ccccc1Nc1c(C)ccc(C(C)N(O)C(C)=O)c1C (stereo not drawn) [Example 36]
inhibition at 16 µM (5-lipoxygenase [1]): 100%
ARBC activity (N = not active) (cyclooxygenase [5]): N

SMILES: COC(=O)c1ccccc1Nc1c(Cl)ccc(C(C)N(O)C(C)=O)c1Cl (stereo not drawn) [Example 39]
inhibition at 10 µM (5-lipoxygenase [1]): 100%
inhibition at 10 µM (cyclooxygenase [4]; [7]): 52%

SMILES: COC(=O)c1ccccc1Nc1cccc(C(C)N(O)C(C)=O)c1Cl (stereo not drawn) [Example 33, 2-[[3-[1-(acetylhydroxyamino)ethyl]-2-chlorophenyl]amino]benzoic acid methyl ester]
inhibition at 10 µM (5-lipoxygenase [1]): 100%
ARBC activity (N = not active) (cyclooxygenase [2]): N

SMILES: COC(=O)c1ccccc1Nc1cccc(CN(O)C(C)=O)c1Cl [Example 37]
IC50 (5-lipoxygenase [1]): 580 nM
IC50 (cyclooxygenase [4]): 4300 nM

SMILES: CCOC(=O)N(O)C(C)c1ccc(C)c(Nc2ccccc2C(=O)OC)c1C (stereo not drawn) [Example 43]
inhibition at 16 µM (5-lipoxygenase [1]): 100%
ARBC activity (N = not active) (cyclooxygenase [5]): N

Further lines, results first:

inhibition at 10 µM (5-lipoxygenase [1]): 100%
ARBC activity (N = not active) (cyclooxygenase [2]): N
SMILES: COC(=O)c1ccccc1Nc1cccc(C(C)N(O)C(C)=O)c1C (stereo not drawn) [Example 35]

ARBL activity (N = not active) (5-lipoxygenase [3]): N
inhibition at 16 µM (cyclooxygenase [4]; [7]): 53%
SMILES: CCOC(=O)N(O)C(C)c1ccc(C)c(Nc2ccccc2C(=O)O)c1C (stereo not drawn) [Example 53]

IC50 (5-lipoxygenase [1]): 360 nM
IC50 (cyclooxygenase [4]): 6000 nM
SMILES: COC(=O)c1ccccc1Nc1c(Cl)ccc(CN(O)C(C)=O)c1Cl [Example 38]

IC50 (5-lipoxygenase [1]): 330 nM
IC50 (cyclooxygenase [4]): 3700 nM
SMILES: CCOC(=O)N(O)Cc1ccc(Cl)c(Nc2ccccc2C(=O)OC)c1Cl [Example 42]

ARBL activity (N = not active) (5-lipoxygenase [3]): N
inhibition at 16 µM (cyclooxygenase [4]; [7]): 56%
SMILES: CNC(=O)N(O)Cc1cccc(Nc2ccccc2C(=O)O)c1C [Example 50]

IC50 (cyclooxygenase [4]): 1900 nM
ARBL activity (N = not active) (5-lipoxygenase [6]): N
SMILES: CC(=O)N(O)Cc1cccc(Nc2ccccc2C(=O)O)c1C [Example 48]

IC50 (5-lipoxygenase [1]): 390 nM
IC50 (cyclooxygenase [4]): 8700 nM
SMILES: CCOC(=O)N(O)Cc1cccc(Nc2ccccc2C(=O)OC)c1C [Example 41, 2-[[3-[[(Ethoxycarbonyl)hydroxyamino]methyl]-2-methylphenyl]amino]benzoic acid methyl ester]

inhibition at 10 µM (cyclooxygenase [4]; [7]): 87%
ARBL activity (N = not active) (5-lipoxygenase [6]): N
SMILES: CC(=O)N(O)Cc1cccc(Nc2ccccc2C(=O)O)c1Cl [Example 54]

IC50 (5-lipoxygenase [1]): < 62.5 nM
IC50 (cyclooxygenase [4]): 10000 nM
SMILES: COC(=O)c1ccccc1Nc1cccc(CN(O)C(C)=O)c1C [Example 34]

inhibition at 10 µM (cyclooxygenase [4]; [7]): 79%
ARBL activity (N = not active) (5-lipoxygenase [6]): N
SMILES: CC(=O)N(O)C(C)c1cccc(Nc2ccccc2C(=O)O)c1Cl (stereo not drawn) [Example 47]

inhibition at 10 µM (cyclooxygenase [4]; [7]): 83%
ARBL activity (N = not active) (5-lipoxygenase [6]): N
SMILES: CC(=O)N(O)Cc1ccc(Cl)c(Nc2ccccc2C(=O)O)c1Cl [Example 55]
